What was measured:
[1] = Cytotoxicity against human HepG2.2.15 cells assessed as reduction in cell viability incubated for 3 days followed by replacement of fresh medium containing compound and measured after 3 days by cell titer glo-based luminescence assay; design: species or system HepG2 2.2.15
[2] = Half life in human hepatocytes; format: ADME, cell-based, Hepatocyte
[3] = Half life in human at 200 mg; format: ADME
[4] = test system: Hepatitis B virus; test: Antiviral activity against Hepatitis B virus infected in naive HBeAg positive patients assessed as log10 reduction in HBV DNA at 600 mg bid; format: functional
[5] = Lipophilicity, log P of the compound; format: physicochemical; settings: octanol/water
[6] = Ratio of drug concentration in liver to plasma of CD1 mouse; format: ADME
[7] = Oral bioavailability in CD1 mouse at 10 mg/kg; format: ADME, organism-based; settings: in vivo
[8] = Oral bioavailability in Mongrel dog at 3 mg/kg; format: ADME, organism-based, Canis lupus familiaris; settings: in vivo
[9] = Half life in CD1 mouse at 10 mg/kg, po or 2 mg/kg, iv; format: ADME, organism-based; settings: in vivo
[10] = Half life in Sprague-Dawley rat at 10 mg/kg, po or 2 mg/kg, iv; format: ADME, organism-based; settings: in vivo
[11] = Half life in Mongrel dog at 3 mg/kg, po or 1 mg/kg, iv; format: ADME, organism-based, Canis lupus familiaris; settings: in vivo
[12] = Clearance in CD1 mouse at 10 mg/kg, po or 2 mg/kg, iv; format: ADME, organism-based; settings: in vivo
[13] = Clearance in Sprague-Dawley rat at 10 mg/kg, po or 2 mg/kg, iv; format: ADME, organism-based; settings: in vivo
[14] = Clearance in Mongrel dog at 3 mg/kg, po or 1 mg/kg, iv; format: ADME, organism-based, Canis lupus familiaris; settings: in vivo
[15] = Volume of distribution at steady state in CD1 mouse at 10 mg/kg, po or 2 mg/kg, iv; format: ADME, organism-based; settings: in vivo, read-out: Vdss
[16] = Volume of distribution at steady state in Sprague-Dawley rat at 10 mg/kg, po or 2 mg/kg, iv; format: ADME, organism-based; settings: in vivo, read-out: Vdss
[17] = Volume of distribution at steady state in Mongrel dog at 3 mg/kg, po or 1 mg/kg, iv; format: ADME, organism-based, Canis lupus familiaris; settings: in vivo, read-out: Vdss
[18] = test system: Hepatitis B virus; test: Ratio of EC50 for antiviral activity against Hepatitis B virus infected in human HepG2.2.15 cells in presence of 40% normal human serum to EC50 for antiviral activity against Hepatitis B virus infected in human HepG2.2.15 cells in absence of 40% normal human serum; format: functional
[19] = Half life in CD1 mouse hepatocytes; format: ADME, cell-based, Hepatocyte
[20] = Half life in Sprague-Dawley rat hepatocytes; format: ADME, cell-based, Hepatocyte
[21] = Half life in Mongrel dog hepatocytes; format: ADME, cell-based, Canis lupus familiaris, Hepatocyte
[22] = Stability in human hepatocytes; format: ADME, cell-based, Hepatocyte
[23] = Solubility of the compound in DMSO; format: physicochemical
[24] = AUC in CD1 mouse plasma at 5 mg/kg; format: ADME, organism-based; settings: in vivo
[25] = AUC in CD1 mouse liver at 5 mg/kg; format: ADME, organism-based; settings: in vivo

## O=C(Nc1ccc(F)c(Cl)c1)c1ccc(F)c(S(=O)(=O)N2CCCC(O)CC2)c1 (stereo not drawn)
[1]
  CC50 at 72 h: 29 µM

## CC(O)C1CCCCN(S(=O)(=O)c2cc(C(=O)Nc3ccc(F)c(Cl)c3)ccc2F)C1 (stereo not drawn)
[1]
  CC50 at 72 h: 2.6 µM

## O=C(Nc1ccc(F)c(Cl)c1)c1ccc(F)c(S(=O)(=O)N2CCCCC(O)C2)c1 (stereo not drawn)
[1]
  CC50 at 72 h: 15 µM
[2]
  half-life: 0.817 h

## O=C(Nc1ccc(F)c(Cl)c1)c1ccc(F)c(S(=O)(=O)N2CCCCC(O)CC2)c1 (stereo not drawn)
[1]
  CC50 at 72 h: 24 µM
[2]
  half-life: 0.0833 h

## O=C(Nc1ccc(F)c(Cl)c1)c1ccc(F)c(S(=O)(=O)N2CCCCC(CO)C2)c1 (stereo not drawn)
[1]
  CC50 at 72 h: 3.1 µM

## CC1(O)COCCN(S(=O)(=O)c2cc(C(=O)Nc3ccc(F)c(Cl)c3)ccc2F)C1 (stereo not drawn)
[1]
  CC50 at 72 h: 7.1 to 15 µM
[2]
  half-life: 1.28 h

## O=C(Nc1ccc(F)c(Cl)c1)c1ccc(F)c(S(=O)(=O)N2CCOCC(F)C2)c1 (stereo not drawn)
[1]
  CC50 at 72 h: 15 µM

## O=C(Nc1ccc(F)c(Cl)c1)c1ccc(F)c(S(=O)(=O)N2CCSCC(O)C2)c1 (stereo not drawn)
[1]
  CC50 at 72 h: 19 µM

## O=C(Nc1ccc(F)c(Cl)c1)c1ccc(F)c(S(=O)(=O)N2CCCCC(F)(F)C2)c1
[1]
  CC50 at 72 h: 11 µM

## COC1COCCN(S(=O)(=O)c2cc(C(=O)Nc3ccc(F)c(Cl)c3)ccc2F)C1 (stereo not drawn)
[1]
  CC50 at 72 h: 8.7 µM

## CN1CCN(S(=O)(=O)c2cc(C(=O)Nc3ccc(F)c(Cl)c3)ccc2F)CC(O)C1 (stereo not drawn)
[1]
  CC50 at 72 h: 31 µM

## O=C(Nc1cc(F)c(F)c(F)c1)c1ccc(F)c(S(=O)(=O)N2CCC(O)CC2)c1
[3]
  half-life: 15 to 19 h
[4]
  Activity: 1.7 log10IU/ml
[5]
  logP: 3.2
[6]
  Kp: 6

## CC1(O)CCCN(S(=O)(=O)c2cc(C(=O)Nc3ccc(F)c(Cl)c3)ccc2F)CC1 (stereo not drawn)
[1]
  CC50 at 72 h: 11 µM

## O=C(Nc1ccc(F)c(Cl)c1)c1ccc(F)c(S(=O)(=O)N2CCOC[C@@H](O)C2)c1
[1]
  CC50 at 72 h: 14 µM

## CC1(O)CCCCN(S(=O)(=O)c2cc(C(=O)Nc3ccc(F)c(Cl)c3)ccc2F)C1 (stereo not drawn)
[1]
  CC50 at 72 h: 10 µM

## O=C(Nc1ccc(F)c(Cl)c1)c1ccc(F)c(S(=O)(=O)N2CCCCCC(O)C2)c1 (stereo not drawn)
[1]
  CC50 at 72 h: 11 µM
[2]
  half-life: 0.267 h

## O=C(Nc1ccc(F)c(Cl)c1)c1ccc(F)c(S(=O)(=O)N2CCOC[C@H](O)C2)c1
[1]
  CC50 at 72 h: 19 µM
[7]
  bioavailability: 78%
[8]
  bioavailability: 53%
[9]
  half-life: 2.6 h
[10]
  half-life: 0.6 h
[11]
  half-life: 4.6 h
[12]
  clearance: 28 mL/min/kg
[13]
  clearance: 88 mL/min/kg
[14]
  clearance: 5.4 mL/min/kg
[15]
  Vd: 4.1 L/kg
[16]
  Vd: 3.3 L/kg
[17]
  Vd: 1.3 L/kg
[18]
  Ratio EC50: 6
[5]; read-out: logP
  logP: 2.6
[6]
  Kp: 15
[19]
  half-life: 0.8 h
[20]
  half-life: 0.467 h
[21]
  half-life: 4.63 h
[22]
  Stability: Stable

## CN1CCCN(S(=O)(=O)c2cc(C(=O)Nc3ccc(F)c(Cl)c3)ccc2F)CC1=O
[1]
  CC50 at 72 h: > 100 µM
[23]
  solubility: Insoluble

## O=C(Nc1ccc(F)c(Cl)c1)c1ccc(F)c(S(=O)(=O)N2C[C@H](O)CC[C@H](O)C2)c1
[2]
  half-life: 8.58 h
[7]
  bioavailability: 12%
[8]
  bioavailability: 22%
[9]
  half-life: 3.2 h
[11]
  half-life: 4.6 h
[12]
  clearance: 34 mL/min/kg
[14]
  clearance: 6.4 mL/min/kg
[15]
  Vd: 4.1 L/kg
[17]
  Vd: 1.3 L/kg
[24]
  AUC: 0.73 µM·h
[25]
  AUC: 55.4 µM·h
[5]; read-out: logP
  logP: 2.9
[6]
  Kp: 76
[19]
  half-life: 3.72 h
[20]
  half-life: 0.467 h
[21]
  half-life: 3.23 h

## O=C(Nc1ccc(F)c(Cl)c1)c1ccc(F)c(S(=O)(=O)N2CCCCCCC2O)c1 (stereo not drawn)
[1]
  CC50 at 72 h: 7 µM

## O=C(Nc1ccc(F)c(Cl)c1)c1ccc(F)c(S(=O)(=O)N2CCOCC(O)C2)c1 (racemic)
[1]
  CC50 at 72 h: 7.1 to 15 µM
[2]
  half-life: 4.63 h
